Experimental data: patent US20240287089A1, “Preparation and Uses of 7-Azaindenoisoquinolines” (Purdue Research Foundation, priority 0001, published 2024)
pIC50, pKd: −log10 of the molar value.

Tests used:
[1] = Stability in blood plasma; settings: mouse plasma, 37° C.
Method: Analysis of Plasma Protein Binding and Stability in Human and Mouse Blood Plasma by Equilibrium Dialysis. Frozen plasma (stored at −80° C.) was thawed immediately in a 37° C. water bath. The working solutions of test compound and control compound were prepared in DMSO at 200 μM concentration, and the working solutions were spiked into plasma. The final concentration of compound was 1 μM. The final concentration of DMSO was 0.5%. Ketoconazole was used as positive control in the assay. The dialysis membranes were soaked in ultrapure water for 60 min to separate strips, then in 20% ethanol for 20 min, and then finally in dialysis buffer for 20 min. For equilibrium dialysis, each cell contained plasma sample (150 μL) and was dialyzed against an equal volume of dialysis buffer (PBS). The assay was performed in duplicate. The dialysis plate was sealed and incubated at 37° C. with 5% CO2 at 100 rpm for 6 h. At the end of incubation, samples (50 μL) from both buffer and plasma chambers were transferred to wells of a 96-well plate. Plasma (50 μL) was added to each buffer sample and an equal volume of PBS was added to the collected plasma sample. […] The concentrations of test compounds in the buffer and plasma chambers were determined from peak area ratios.

[2] = Stability in blood plasma; settings: human plasma, 37° C.
Method: (§3) Analysis of Plasma Protein Binding and Stability in Human and Mouse Blood Plasma by Equilibrium Dialysis. Frozen plasma (stored at −80° C.) was thawed immediately in a 37° C. water bath. The working solutions of test compound and control compound were prepared in DMSO at 200 μM concentration, and the working solutions were spiked into plasma. The final concentration of compound was 1 μM. The final concentration of DMSO was 0.5%. Ketoconazole was used as positive control in the assay. The dialysis membranes were soaked in ultrapure water for 60 min to separate strips, then in 20% ethanol for 20 min, and then finally in dialysis buffer for 20 min. For equilibrium dialysis, each cell contained plasma sample (150 μL) and was dialyzed against an equal volume of dialysis buffer (PBS). The assay was performed in duplicate. The dialysis plate was sealed and incubated at 37° C. with 5% CO2 at 100 rpm for 6 h. At the end of incubation, samples (50 μL) from both buffer and plasma chambers were transferred to wells of a 96-well plate. Plasma (50 μL) was added to each buffer sample and an equal volume of PBS was added to the collected plasma sample. Cold acetonitrile (400 μL) containing internal standards (IS, 100 nM alprazolam, 200 nM labetalol, 200 nM imipramine and 2 μM ketoprofen) was added to precipitate protein and release compounds. Samples were vortexed for 2 min and centrifuged for 30 min at 3,220 g. An aliquot (100 μL) of the supernatant was diluted with ultra-pure H2O (100 μL), and the mixture was used for LC-MS/MS analysis. For stability determination in plasma, a spiked plasma sample (50 μL) was transferred to a new plate and incubated at 37° C., 5% CO2 for 0 and 6 h. At designated time points, PBS (50 μL) was added and mixed thoroughly, followed by the addition of room temperature quench solution [400 μL of acetonitrile containing internal standards (IS, 100 nM alprazolam, 200 nM labetalol, 200 nM imipramine and 2 μM ketoprofen)] to precipitate protein and release compounds. Samples were vortexed for 2 min and centrifuged for 30 min at 3,220 g. An aliquot (400 μL) of the supernatant was diluted by ultra-pure H2O, and the mixture was used for LC-MS/MS analysis. The concentrations of test compounds in the buffer and plasma chambers were determined from peak area ratios.

[3] = Plasma protein binding by equilibrium dialysis; settings: mouse plasma
Method: as §3

[4] = Plasma protein binding by equilibrium dialysis; settings: human plasma
Method: as §3

RAJI lymphoma cells = assay: MTS cell viability IC50 assay; format: cell-based; settings: 72 h
Method: Cytotoxicity Results in Raji Non-Hodgkin's Lymphoma Cells. MTS experiments were then conducted to test the anti-proliferative effects of 7-aza-8,9-methylenedioxyindenoisoquinolines in Raji cells. Cells were incubated at 2-2000 nM of each drug for 72 h, and cell viabilities were quantified using the MTS assay. […] This potency trend generally correlated with the western blot results, in which G106 and G108 […] show weaker Myc downregulation.
(§1) MTS Cell Viability IC50 Assay. Drug solutions for MTS IC50 assays of suspension cell lines were made from DMSO stocks by serial-dilutions in 1×PBS (10010-031, Gibco). To set up treatments, drug solutions were plated in triplicates to 96-well tissue culture plates, to which cell-containing media was added to a total volume of 100 μL/well. 100%-viability controls were untreated cells. 2000 cells/well were plated for all suspension cell lines except 3000 cells/well for KMS-27 and 10000 cells/well for CHLA-32. Blanks were cell-free media. Drug treatments were maintained for 72 hr at 37° C. with 5% CO2. To quantify cells, CellTiter 96 AQueous MTS Reagent Powder (G1111, Promega) was dissolved and mixed with phenazine methosulfate (PMS, Sigma-Aldrich P9625) according to manufacturer's instructions. MTS/PMS mix ([…]) was added to treatment wells, 100%-viability control wells, and blank wells. Colors were developed at 37° C. with 5% CO2 for 4 h and absorbance at 490 nm was measured by BioTek Synergy 4 system. To obtain %-viability, A490 values were corrected by blank subtraction, normalized to 100%-viability control, and averaged. Average %-viabilities were plotted against drug dosages to obtain dose-response curves. […] For adherent cell lines, the MTS IC50 assays were conducted the same way as for suspension cell lines except for cell plating and drug treatment. For cell plating, 50 μL of 2000 cells were plated in triplicates to a 96-well tissue culture plate. Cells were allowed sufficient time to become adherent. Serial-diluted drug solutions were made the same way as in the MTS IC50 assays. To set up treatments, drug solutions were mixed with media to two-fold of the final concentrations, and 50 μL of such drug-media mix was then added to 50 μL of plated cells.

[5] = system: Myc protein in MCF-7 breast cancer cells; assay: Western blot of Myc protein level; format: cell-based; settings: MCF-7, 0.5, 1.0, 2.0 μM, 24 h
Method: Western blot. G-quadruplex formed in the MYC promoter functions as a transcriptional silencer. To determine the effects of 7-aza-8,9-methylenedioxyindenosioquinolines on the MYC protein level, a western blotting experiment was carried out using MCF-7 breast cancer cells. Western blot experiments were conducted to examine the downregulation effects of 7-aza-8,9-methylenedioxyindenosioquinolines on Myc protein level (FIG. 5). MCF-7 breast cancer cells were incubated for 24 h at 0, 0.5, 1.0, and 2.0 μM of G-101-108.
Western Blotting. MCF-7 cells were grown and treated in 6-well tissue culture plates. After collection, cells were suspended in 140 μL lysis buffer containing 1× RIPA buffer, 1× Protease Inhibitor Cocktail (A32965, Thermo Scientific), 1× NuPAGE LDS Sample Buffer (NP0007, Invitrogen), and 1× Sample Reducing Agent (NP0009, Invitrogen). The cell lysates were heated to 75° C. for 10 min. After sonication, 8 μL of each sample was loaded on a 4-15% Mini-PROTEAN TGX gel (4561086, Bio-Rad). […] Myc and GAPDH were detected with 1:1000-diluted monoclonal anti-Myc antibody (5605S, Cell Signaling Technology) and 1:2000-diluted monoclonal anti-GAPDH antibody (5174S, Cell Signaling Technology), respectively. Primary antibodies were detected by anti-Rabbit IgG HRP-linked antibody (7074S, Cell Signaling Technology). […]

human Topo1 = human Topo1 (Homo sapiens (Human), UniProt P11387); assay: Topo1-mediated DNA cleavage assay; format: biochemical; settings: 10 μM
Method: 7-Aza-8,9-methylenedioxyindenoisoquinoline compounds were examined for inhibitory effects on Topol-mediated DNA relaxation (FIG. 11A), and for Topol poison effect using Topol-Mediated DNA Cleavage Assay (FIG. 11B).
Topol-Mediated DNA Cleavage Assay. Human Topoisomerase I Assay Kit (TG1015-1A) from Topogen was used to examine the compounds for Topol poison effect. Assay was performed according to manufacturer's instructions. CPT at 10 μM was used as a positive control. […] Assay samples were incubated at 37° C. for 30 min followed by reaction termination with 10% SDS. This was followed by a 15 min Proteinase K digestion for 15 min at 37° C. to degrade Topo1 and a 1:1 volume chloroform:isoamyl alcohol DNA extraction. Samples were electrophoresed on a 1% agarose gel in TBE buffer for 2 h at 46 v. Both the agarose gel and buffer contained 0.5 μg/ml of ethidium bromide.

MDA-MB-231 = assay: MTS GI50, Myc-dependent panel; format: cell-based; settings: Homo sapiens, MDA-MB-231, 72 h; read-out: GI50
Method: (§2) Cytotoxicity Results in Myc-dependent Cancer Cell Lines.
as §1

CHLA-32 = assay: MTS GI50, Myc-dependent panel; format: cell-based; settings: CHLA-32, 72 h; read-out: GI50
Method: as §2, §1

TC-71 = assay: MTS GI50, Myc-dependent panel; format: cell-based; settings: TC-71, 72 h; read-out: GI50
Method: as §2, §1

TC-106 = assay: MTS GI50, Myc-dependent panel; format: cell-based; settings: TC-106, 72 h; read-out: GI50
Method: as §2, §1

RD-ES = assay: MTS GI50, Myc-dependent panel; format: cell-based; settings: 72 h, read-out: GI50
Method: as §2, §1

K-562 = assay: MTS GI50, Myc-dependent panel; format: cell-based; settings: Homo sapiens, K562; K-562, 72 h; read-out: GI50
Method: as §2, §1

RPMI-8226 = assay: MTS GI50, Myc-dependent panel; format: cell-based; settings: Homo sapiens, RPMI-8226, 72 h; read-out: GI50
Method: as §2, §1

SK-N-MC = assay: MTS GI50, Myc-dependent panel; format: cell-based; settings: Homo sapiens, 72 h, read-out: GI50
Method: as §2, §1

MOLT-4 = assay: MTS GI50, Myc-dependent panel; format: cell-based; settings: Homo sapiens, MOLT-4, 72 h; read-out: GI50
Method: as §2, §1

THP-1 = assay: MTS GI50, Myc-dependent panel; format: cell-based; settings: Homo sapiens, THP-1, 72 h; read-out: GI50
Method: as §2, §1

HL-60 = assay: MTS GI50, Myc-dependent panel; format: cell-based; settings: Homo sapiens, HL-60, 72 h; read-out: GI50
Method: as §2, §1

ARD = assay: MTS GI50, Myc-dependent panel; format: cell-based; settings: ARD, 72 h; read-out: GI50
Method: as §2, §1

MCF-7 = assay: MTS GI50, Myc-dependent panel; format: cell-based; settings: Homo sapiens, MCF7; MCF-7, 72 h; read-out: GI50
Method: as §2, §1

CHLA-99 = assay: MTS GI50, Myc-dependent panel; format: cell-based; settings: CHLA-99, 72 h; read-out: GI50
Method: as §2, §1

CCRF-CRM = assay: MTS GI50, Myc-dependent panel; format: cell-based; settings: CCRF-CRM, 72 h; read-out: GI50
Method: as §2, §1

KMS-27 = assay: MTS GI50, Myc-dependent panel; format: cell-based; settings: KMS-27, 72 h; read-out: GI50
Method: as §2, §1

L-363 = assay: MTS GI50, Myc-dependent panel; format: cell-based; settings: Homo sapiens, L-363, 72 h; read-out: GI50
Method: as §2, §1

Kasumi-1 = assay: MTS GI50, Myc-dependent panel; format: cell-based; settings: Homo sapiens; Kasumi-1, 72 h; read-out: GI50
Method: as §2, §1

RS4;11 = assay: MTS GI50, Myc-dependent panel; format: cell-based; settings: Homo sapiens; RS4;11, 72 h; read-out: GI50
Method: as §2, §1

AMO-1 = assay: MTS GI50, Myc-dependent panel; format: cell-based; settings: Homo sapiens, AMO1; AMO-1, 72 h; read-out: GI50
Method: as §2, §1

TC-32 = assay: MTS GI50, Myc-dependent panel; format: cell-based; settings: Homo sapiens, TC-32, 72 h; read-out: GI50
Method: as §2, §1

[6] = target: 3′-TAMRA-labeled MycG4 DNA; assay: Fluorescence binding assay; settings: 20° C., 100 mM K+ buffer, pH 7.0; read-out: Apparent Binding Affinity Kd, app
Method: Binding Affinity to the Myc G-Quadruplex. Binding affinity of eight 7-aza-8,9-methylenedioxyindenoisoquinolines to MycG4 was determined using a fluorescence binding assay with a 3′-TAMRA-labeled MycG4 DNA. Monitoring TAMRA emission upon drug titration afforded binding isotherms, from which apparent binding affinities, Kd,app, were derived.
Fluorescence-Based Binding Assays. Fluorescence-based binding assays were performed on a Jasco FP-8300 spectrofluorometer equipped with a temperature controller at 20° C. in a quartz cuvette with a 10 mm path length. 3′-TAMRA-labeled MycG4 DNA (Sigma-Aldrich) was diluted to 20 nM using a 75 mM KCl/25 mM potassium phosphate buffer, pH 7.0. […] Fluorescence intensity at 580 nm, the maximum for the free DNA, was plotted against drug:DNA ratio. The apparent binding dissociation constant, Kd,app, was derived for the binding of each compound. Using OriginPro software (OriginLab Corp., United States) the change in fluorescence intensity was fitted to a one-site binding equation,
where B0 is the initial fluorescence intensity, B is maximum change in fluorescence intensity, R is DNA concentration, and L is drug:DNA ratio.

human Topo1, sequence (P11387 whole entry): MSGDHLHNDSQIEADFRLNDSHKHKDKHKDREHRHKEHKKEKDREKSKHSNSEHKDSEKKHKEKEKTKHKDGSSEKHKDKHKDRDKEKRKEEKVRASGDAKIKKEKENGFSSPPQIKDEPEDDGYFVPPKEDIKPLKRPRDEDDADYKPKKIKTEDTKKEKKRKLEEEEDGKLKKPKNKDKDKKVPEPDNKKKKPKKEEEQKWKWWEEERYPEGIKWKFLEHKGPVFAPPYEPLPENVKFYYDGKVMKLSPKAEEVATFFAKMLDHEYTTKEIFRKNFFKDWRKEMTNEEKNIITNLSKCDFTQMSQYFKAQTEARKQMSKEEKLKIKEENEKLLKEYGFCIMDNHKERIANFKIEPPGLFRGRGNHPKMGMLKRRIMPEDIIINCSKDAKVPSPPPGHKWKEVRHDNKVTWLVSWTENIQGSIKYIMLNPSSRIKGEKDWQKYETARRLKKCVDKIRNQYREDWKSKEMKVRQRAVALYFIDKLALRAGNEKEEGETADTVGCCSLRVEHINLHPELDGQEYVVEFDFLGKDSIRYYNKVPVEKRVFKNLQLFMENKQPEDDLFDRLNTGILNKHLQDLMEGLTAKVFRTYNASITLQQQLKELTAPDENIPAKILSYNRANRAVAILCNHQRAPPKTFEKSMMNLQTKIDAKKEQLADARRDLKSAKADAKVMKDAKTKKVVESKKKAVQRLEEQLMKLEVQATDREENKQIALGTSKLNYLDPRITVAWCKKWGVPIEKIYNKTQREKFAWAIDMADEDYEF

In the case of `CC(=O)N1CCN(c2ccc(OCC3COC(Cn4ccnc4)(c4ccc(Cl)cc4Cl)O3)cc2)CC1` (centres unmarked) [Ketoconazole], the “% Stability at 6 hrs” value [1] was 88.82%, the “% Stability at 6 hrs” value [2] was 104.96% and the “% Recovery” value [3] was 93.23%. For the same compound, the “% Bound” value ([3]; 1 μM, 6 h dialysis) was 99.26%, the “% Recovery” value [4] was 107.45% and the “% Bound” value ([4]; 1 μM, 6 h dialysis) was 98.01%.

In the case of `COc1cc2c3c(n(CCCN4CCCC4)c(=O)c2cc1OC)-c1nc2c(cc1C3=O)OCO2` [G108, 2,3-Dimethoxy-6-(3-(pyrrolidin-1-yl)propyl)-5H-[1,3]dioxolo[4″,5″:5′,6′]pyrido[3′,2′:4,5]cyclopenta[1,2-c]isoquinoline-5,12(6H)-dione], the pIC50 (RAJI lymphoma cells; RAJI) was 5.77, the “Myc protein level (Western blot)” value [5] was “weak Myc downregulation” and the “inhibition of DNA relegation (Top1 poison effect)” value (human Topo1) was “minimal effects on DNA relegation”.

For `COc1cc2c3c(n(CCCn4ccnc4)c(=O)c2cc1OC)-c1cc2c(cc1C3=O)OCO2` [LMP776, indimitecan], the pIC50 (RAJI lymphoma cells; Homo sapiens, Raji) was 7.04, the GI50 (MDA-MB-231) was 329 nM and the GI50 (CHLA-32) was 93 nM. For the same compound, the GI50 (TC-71) was 232 nM, the GI50 (TC-106) was 250 nM and the GI50 (RD-ES) was 227 nM. It also gave a GI50 (K-562) of 341 nM, a GI50 (RPMI-8226) of 139 nM and a GI50 (SK-N-MC) of 225 nM. The GI50 (MOLT-4) was 42 nM, the GI50 (THP-1) was 273 nM and the GI50 (HL-60) was 894 nM. For the same compound, the GI50 (ARD) was 33 nM, the GI50 (MCF-7) was over 2000 nM and the GI50 (CHLA-99) was 276 nM. It also gave a GI50 (CCRF-CRM) of 70 nM, a GI50 (KMS-27) of 127 nM and a GI50 (L-363) of 53 nM. The GI50 (Kasumi-1) was 533 nM, the GI50 (RS4;11) was 59 nM and the GI50 (AMO-1) was 191 nM. The GI50 (TC-32) was 179 nM and the pKd [6] was 7.16.
